Reference: ChEMBL document CHEMBL1201862, “PubChem BioAssay data set” (2004)
Activity calls are given as the source filed them. Cut-off read from the data, not from the text of the source, for most assays here: actives have a measured IC50 and inactives only a lower limit.

What was measured:
Caspase-3 = biological target: T1, Caspase-3 (Homo sapiens, UniProt P42574); assay type: functional;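 note: Dose-response selectivity test against caspase-3 for candidate inhibitors of sentrin-specific proteases (SENPs)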
T1 sequence (P42574 whole entry): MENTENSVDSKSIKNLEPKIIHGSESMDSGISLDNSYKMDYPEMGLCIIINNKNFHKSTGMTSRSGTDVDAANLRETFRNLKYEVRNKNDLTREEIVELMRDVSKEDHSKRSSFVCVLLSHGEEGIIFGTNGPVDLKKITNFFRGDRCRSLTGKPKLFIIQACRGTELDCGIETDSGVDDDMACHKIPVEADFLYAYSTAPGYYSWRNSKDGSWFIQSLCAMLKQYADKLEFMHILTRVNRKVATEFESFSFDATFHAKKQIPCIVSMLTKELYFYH

[1] = biological target: T2, Sentrin-specific protease 7 (Homo sapiens, UniProt Q9BQF6); assay type: functional;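 note: Luminescence-based dose-response confirmation of ultra-high-throughput screening hits, measuring inhibition of SENP7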
T2 sequence (Q9BQF6 whole entry): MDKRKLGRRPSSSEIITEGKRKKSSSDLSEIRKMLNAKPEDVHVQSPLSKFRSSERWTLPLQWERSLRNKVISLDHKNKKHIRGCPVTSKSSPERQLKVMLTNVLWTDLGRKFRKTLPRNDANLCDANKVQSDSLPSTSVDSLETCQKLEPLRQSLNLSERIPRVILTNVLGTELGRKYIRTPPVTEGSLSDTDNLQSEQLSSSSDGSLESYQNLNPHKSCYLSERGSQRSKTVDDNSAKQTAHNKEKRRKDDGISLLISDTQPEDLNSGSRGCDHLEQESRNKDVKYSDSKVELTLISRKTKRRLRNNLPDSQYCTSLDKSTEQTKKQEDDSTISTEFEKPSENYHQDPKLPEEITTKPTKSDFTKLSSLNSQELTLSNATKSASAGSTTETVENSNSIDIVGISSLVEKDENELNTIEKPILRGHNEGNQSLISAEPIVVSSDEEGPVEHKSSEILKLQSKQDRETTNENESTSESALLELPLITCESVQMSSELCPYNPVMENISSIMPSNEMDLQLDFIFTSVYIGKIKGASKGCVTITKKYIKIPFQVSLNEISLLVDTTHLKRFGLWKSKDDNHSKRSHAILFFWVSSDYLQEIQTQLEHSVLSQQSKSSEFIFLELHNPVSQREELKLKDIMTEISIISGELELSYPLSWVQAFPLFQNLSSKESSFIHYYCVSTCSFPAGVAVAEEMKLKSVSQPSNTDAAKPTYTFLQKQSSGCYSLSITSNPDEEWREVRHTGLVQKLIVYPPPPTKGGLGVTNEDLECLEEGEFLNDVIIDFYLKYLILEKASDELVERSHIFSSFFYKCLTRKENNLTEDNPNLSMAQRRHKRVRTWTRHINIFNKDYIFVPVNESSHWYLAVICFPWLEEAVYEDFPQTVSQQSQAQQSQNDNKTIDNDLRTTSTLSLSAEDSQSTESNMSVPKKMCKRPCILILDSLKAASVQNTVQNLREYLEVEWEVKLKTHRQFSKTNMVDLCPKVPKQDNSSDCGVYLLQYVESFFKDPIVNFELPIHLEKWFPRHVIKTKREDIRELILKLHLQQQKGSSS

Protein RecA = biological target: T3, Protein RecA (Mycobacterium tuberculosis, UniProt P9WHJ3); test: Fluorescence Cell-Free Homogeneous Dose Retest to Identify Inhibitors of RecA-Intein Splicing Activity. [Related pubchem assays (depositor defined):AID2097, AID2223, AID489010, AID492950]; assay type: functional
T3 sequence (P9WHJ3 whole entry): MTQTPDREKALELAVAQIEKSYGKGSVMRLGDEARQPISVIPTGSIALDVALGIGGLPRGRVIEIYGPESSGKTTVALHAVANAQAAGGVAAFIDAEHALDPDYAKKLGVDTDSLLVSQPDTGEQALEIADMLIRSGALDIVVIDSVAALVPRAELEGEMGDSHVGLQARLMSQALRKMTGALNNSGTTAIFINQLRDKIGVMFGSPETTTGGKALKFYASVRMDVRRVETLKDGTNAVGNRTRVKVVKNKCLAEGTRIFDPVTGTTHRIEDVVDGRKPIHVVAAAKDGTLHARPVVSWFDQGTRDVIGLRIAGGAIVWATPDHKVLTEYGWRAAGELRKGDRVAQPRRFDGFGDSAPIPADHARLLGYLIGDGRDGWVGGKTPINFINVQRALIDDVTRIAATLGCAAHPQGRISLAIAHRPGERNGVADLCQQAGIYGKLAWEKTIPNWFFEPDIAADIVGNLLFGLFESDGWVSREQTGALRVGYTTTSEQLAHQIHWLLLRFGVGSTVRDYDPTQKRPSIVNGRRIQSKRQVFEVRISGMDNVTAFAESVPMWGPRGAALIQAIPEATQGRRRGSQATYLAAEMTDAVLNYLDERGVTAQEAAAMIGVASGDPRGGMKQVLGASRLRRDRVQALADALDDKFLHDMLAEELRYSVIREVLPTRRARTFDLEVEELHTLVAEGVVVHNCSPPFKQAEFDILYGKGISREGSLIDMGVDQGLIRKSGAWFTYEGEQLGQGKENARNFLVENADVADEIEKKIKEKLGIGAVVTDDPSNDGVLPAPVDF

[2] = biological target: T4, Sentrin-specific protease 8 (Homo sapiens, UniProt Q96LD8); assay type: functional;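 note: luminescence read-out of SENP8 inhibition, dose-response confirmation following an ultra-high-throughput screen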
T4 sequence (Q96LD8 whole entry): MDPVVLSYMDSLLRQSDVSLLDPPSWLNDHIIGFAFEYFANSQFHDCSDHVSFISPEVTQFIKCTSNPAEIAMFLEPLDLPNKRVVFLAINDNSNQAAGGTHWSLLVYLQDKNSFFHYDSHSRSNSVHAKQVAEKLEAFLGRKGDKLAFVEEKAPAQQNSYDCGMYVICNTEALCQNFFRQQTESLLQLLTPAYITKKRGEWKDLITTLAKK

Streptokinase A = biological target: T5, Streptokinase A (Streptococcus pyogenes serotype M1, UniProt P10520); test: S. pyogenes streptokinase expression inhibitors, potency, dose response, plasminogen activation absorbance, OD405 (AID 1914); assay type: functional, Streptococcus pyogenes M1 GAS;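 note: secreted streptokinase activity via plasminogen activation per viability signal from cell pellet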
T5 sequence (P10520 whole entry): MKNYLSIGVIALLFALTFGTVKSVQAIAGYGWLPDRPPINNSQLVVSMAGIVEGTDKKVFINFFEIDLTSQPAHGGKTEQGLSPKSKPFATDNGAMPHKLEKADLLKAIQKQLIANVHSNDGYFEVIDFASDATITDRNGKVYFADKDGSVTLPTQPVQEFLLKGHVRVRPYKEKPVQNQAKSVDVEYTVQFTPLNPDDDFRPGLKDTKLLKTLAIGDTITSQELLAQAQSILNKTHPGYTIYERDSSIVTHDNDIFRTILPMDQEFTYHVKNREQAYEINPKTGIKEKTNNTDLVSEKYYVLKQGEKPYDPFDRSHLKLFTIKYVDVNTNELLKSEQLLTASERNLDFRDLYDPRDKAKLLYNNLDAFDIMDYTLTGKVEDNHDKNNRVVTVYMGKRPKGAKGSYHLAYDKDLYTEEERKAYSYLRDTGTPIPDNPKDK

## NC(=O)C1CCN(C2=C(Cl)C(=O)c3ccccc3C2=O)CC1
Caspase-3
  IC50: 7.35 µM (active)
[1]
  IC50: 17.8 µM (active)
Protein RecA
  EC50: 0.146 µM (active)
[2]
  IC50: 8.88 µM (active)

## O=c1c2ccccc2nc(/C=C/c2cccnc2)n1Cc1ccccc1
Protein RecA
  EC50: 9.92 µM (active)

## O=C(O)c1ccc(N/N=C/c2ccc(OC(=O)c3ccccc3Cl)cc2)cc1
Caspase-3
  IC50: 14.8 µM (active)
[1]
  IC50: 3.74 µM (active)
Streptokinase A
  EC50: > 150 µM (not active)
[2]
  IC50: 2.05 µM (active)
